Experimental data reported in patent publication US7790742B2, “Substituted 4-phenyltetrahydroisoquinolines, pharmaceutical compositions thereof, methods for their preparation and therapeutic use” (Sanofi-Aventis Deutschland GmbH, priority 2004, dated 2010).

Legend:
[1] = molecular target: T1, NHE3 (Homo sapiens, UniProt P48764); assay: Determination of the NHE-inhibitory effect (recovery of intracellular pH after acidification, BCECF); assay type: cell-based; conditions: BCECF fluorescence, NHE subtype not given
T1 construct: host or cells: cells, not specified
T1 sequence (P48764 26-834): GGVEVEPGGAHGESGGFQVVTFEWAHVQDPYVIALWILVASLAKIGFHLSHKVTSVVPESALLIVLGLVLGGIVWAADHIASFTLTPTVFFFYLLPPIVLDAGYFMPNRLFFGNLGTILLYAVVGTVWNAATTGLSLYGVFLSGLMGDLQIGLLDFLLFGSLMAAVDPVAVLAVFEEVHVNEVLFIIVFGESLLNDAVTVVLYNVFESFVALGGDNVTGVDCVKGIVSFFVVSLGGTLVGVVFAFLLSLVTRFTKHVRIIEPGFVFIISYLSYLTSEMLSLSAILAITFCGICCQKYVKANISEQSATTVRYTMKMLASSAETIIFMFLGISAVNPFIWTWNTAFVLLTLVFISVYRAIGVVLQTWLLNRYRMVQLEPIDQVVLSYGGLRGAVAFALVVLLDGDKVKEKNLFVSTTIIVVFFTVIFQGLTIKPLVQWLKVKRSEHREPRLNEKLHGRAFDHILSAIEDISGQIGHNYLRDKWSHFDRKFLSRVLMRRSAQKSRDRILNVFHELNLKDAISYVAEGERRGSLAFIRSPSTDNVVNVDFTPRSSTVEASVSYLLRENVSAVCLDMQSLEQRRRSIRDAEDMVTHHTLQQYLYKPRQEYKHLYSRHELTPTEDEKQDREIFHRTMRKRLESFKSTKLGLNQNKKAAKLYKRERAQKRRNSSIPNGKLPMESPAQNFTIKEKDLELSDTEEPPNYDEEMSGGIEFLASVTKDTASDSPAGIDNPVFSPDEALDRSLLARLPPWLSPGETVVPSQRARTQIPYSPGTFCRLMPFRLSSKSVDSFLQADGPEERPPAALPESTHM
Protocol: [drawing 82] was obtained in analogy to the method indicated in Example 16 from 6,8-dichloro-2-methyl-4(R)-[2N-(2-ethoxy-3,4-dioxocyclobuten-1-yl)amino]-phenyl-1,2,3,4-tetrahydroisoquinoline (Example 6) and methylamine. Crystalline solid, m.p. 265° C. Pharmacological Data: Assay: Determination of the NHE-Inhibitory Effect
In this assay, the recovery of the intracellular pH (pHj) after an acidification which occurs even under bicarbonate-free conditions with functional NHE was determined. To this end, the pHj was determined using the pH-sensitive fluorescent dye BCECF (calbiochem, the precursor BCECF-AM was employed). The cells were initially loaded with BCECF. The BCECF fluorescence was determined in a ratio fluorescence spectrometer (Photon Technology International, South Brunswick, N.J., USA) with excitation wavelengths of 505 and 440 nm and an emission wavelength of 535 nm and converted into the pHj using calibration plots. The cells had been incubated in NH4Cl buffer (pH 7.4) for the BCECF loading (NH4Cl buffer: 115 mM NaCl, 20 mM NH4Cl, 5 mM KCl, 1 mM CaCl2, 1 mM MgSO4, 20 mM Hepes, 5 mM glucose, 1 mg/ml BSA; a pH of 7.4 was adjusted with 1 M NaOH). The intracellular acidification was induced by adding 975 μl of an NH4Cl-free buffer (see below) to 25 μl aliquots of the cells incubated in NH4Cl buffer. The subsequent rate of pH recovery was recorded for two minutes with NHE1, five minutes with NHE2 and three minutes with NHE3. To calculate the inhibitory power of the tested substances, the cells were initially investigated in buffers with which there was complete or absolutely no pH recovery. For complete pH recovery (100%), the cells were incubated in Na^+-containing buffer (133.8 mM NaCl, 4.7 mM KCl, 1.25 mM CaCl2, 1.25 mM MgCl2, 0.97 mM Na2HPO4, 0.23 mM NaH2PO4, 5 mM Hepes, 5 mM glucose, a pH of 7.0 was adjusted with 1 M NaOH). To determine the 0% value, the cells were incubated in an Na^+-free buffer (133.8 mM choline chloride, 4.7 mM KCl, 1.25 mM CaCl2, 1.25 mM MgCl2, 0.97 mM K2HPO4, 0.23 mM KH2PO4, 5 mM Hepes, 5 mM glucose, a pH of 7.0 was adjusted with 1 M NaOH). The substances to be tested were made up in the Na^+-containing buffer. The recovery of the intracellular pH at each tested concentration of a substance was expressed as a percentage of the maximum recovery. The IC50 of the respective substance for the individual NHE subtypes was calculated from the percentages of pH recovery using the Sigma Plot program.

SMILES	IC50 [1] [nM]	melting point [°C]
CCCN(CCC)c1c(Nc2ccc(C3CN(C)Cc4c(Cl)cc(Cl)cc43)cc2)c(=O)c1=O (centres unmarked) [Example 24, 6,8-dichloro-2-methyl-4-[4N-(2-dipropylamino-3,4-dioxocyclobuten-1-yl)amino]phenyl-1,2,3,4-tetrahydroisoquinoline]	2490	
CC(C)Nc1c(Nc2cccc(C3CN(C)Cc4c(Cl)cc(Cl)cc43)c2)c(=O)c1=O (centres unmarked) [Example 64]		240 to 244
CN1Cc2c(Cl)cc(Cl)cc2C(c2ccc(Nc3c(Nc4ccccc4)c(=O)c3=O)cc2)C1 (centres unmarked) [Example 43, 6,8-dichloro-2-methyl-4-[4N-(2-N-phenylamino-3,4-dioxocyclobuten-1-yl)amino]phenyl-1,2,3,4-tetrahydroisoquinoline]		288 to 294
CN(C)CCNc1c(Nc2cccc(C3CN(C)Cc4c(Cl)cc(Cl)cc43)c2)c(=O)c1=O (centres unmarked) [Example 65]		198 to 200
CCCCCCNc1c(Nc2ccc(C3CN(C)Cc4c(Cl)cc(Cl)cc43)cc2)c(=O)c1=O (centres unmarked) [Example 58]		234 to 238
CNc1c(Nc2cccc(C3CN(C)Cc4c(Cl)cc(Cl)cc43)c2)c(=O)c1=O (centres unmarked) [Example 60]		295 to 298
CNc1c(Nc2ccccc2C2CN(C)Cc3c(Cl)cc(Cl)cc32)c(=O)c1=O (centres unmarked) [Example 44, 6,8-dichloro-2-methyl-4-[2N-(2-N-methylamino-3,4-dioxocyclobuten-1-yl)amino]phenyl-1,2,3,4-tetrahydroisoquinoline]		224 to 230
CN1Cc2c(Cl)cc(Cl)cc2[C@H](c2ccc(Nc3c(N(C)C)c(=O)c3=O)cc2)C1 [Example 20, 6,8-dichloro-2-methyl-4(S)-[4N-(2-dimethylamino-3,4-dioxocyclobuten-1-yl)amino]phenyl-1,2,3,4-tetrahydroisoquinoline]		240 to 247
CC(C)Nc1c(Nc2ccc(C3CN(C)Cc4c(Cl)cc(Cl)cc43)cc2)c(=O)c1=O (centres unmarked) [Example 55, 6,8-dichloro-2-methyl-4-[4N-(2N-isopropylamino-3,4-dioxocyclobuten-1-yl)amino]phenyl-1,2,3,4-tetrahydroisoquinoline]		268 to 272
CN1Cc2c(Cl)cc(Cl)cc2C(c2ccccc2Nc2c(NCc3ccco3)c(=O)c2=O)C1 (centres unmarked) [Example 48, 6,8-dichloro-2-methyl-4-[2N-(2N-(2-furylmethyl)amino-3,4-dioxocyclobuten-1-yl)amino]phenyl-1,2,3,4-tetrahydroisoquinoline]		279 to 283
CN(C)CCNc1c(Nc2ccccc2C2CN(C)Cc3c(Cl)cc(Cl)cc32)c(=O)c1=O (centres unmarked) [Example 50, 6,8-dichloro-2-methyl-4-[2N-(2-N-dimethylaminoethylamino-3,4-dioxocyclobuten-1-yl)amino]phenyl-1,2,3,4-tetrahydroisoquinoline]		208 to 211
CN1Cc2c(Cl)cc(Cl)cc2C(c2ccc(Nc3c(NC4CCCC4)c(=O)c3=O)cc2)C1 (centres unmarked) [Example 54]		300 to 304
CC(C)Nc1c(Nc2ccccc2C2CN(C)Cc3c(Cl)cc(Cl)cc32)c(=O)c1=O (centres unmarked) [Example 46, 6,8-dichloro-2-methyl-4-[2N-(2-N-isopropylamino-3,4-dioxocyclobuten-1-yl)amino]phenyl-1,2,3,4-tetrahydroisoquinoline]		238 to 241
CCCCCCNc1c(Nc2ccccc2C2CN(C)Cc3c(Cl)cc(Cl)cc32)c(=O)c1=O (centres unmarked) [Example 45, 6,8-dichloro-2-methyl-4-[2N-(2-N-(1-hexylamino)-3,4-dioxocyclobuten-1-yl)amino]phenyl-1,2,3,4-tetrahydroisoquinoline]		157 to 160
CN1Cc2c(Cl)cc(Cl)cc2C(c2ccccc2Nc2c(NC3CCCC3)c(=O)c2=O)C1 (centres unmarked) [Example 47, 6,8-dichloro-2-methyl-4-[2N-(2-N-cyclopentylamino-3,4-dioxocyclobuten-1-yl)amino]phenyl-1,2,3,4-tetrahydroisoquinoline]		278 to 281
CN(C)CCNc1c(Nc2ccc(C3CN(C)Cc4c(Cl)cc(Cl)cc43)cc2)c(=O)c1=O (centres unmarked) [Example 57]		262 to 266
CCNc1c(Nc2ccc(C3CN(C)Cc4c(Cl)cc(Cl)cc43)cc2)c(=O)c1=O (centres unmarked) [Example 51, 6,8-dichloro-2-methyl-4-[4N-(2-N-ethylamino-3,4-dioxocyclobuten-1-yl)amino]phenyl-1,2,3,4-tetrahydroisoquinoline]		292 to 297
CNc1c(Nc2ccc(C3CN(C)Cc4c(Cl)cc(Cl)cc43)cc2)c(=O)c1=O (centres unmarked) [Example 53, 6,8-dichloro-2-methyl-4-[4N-(2N-methylamino-3,4-dioxocyclobuten-1-yl)amino]phenyl-1,2,3,4-tetrahydroisoquinoline]		328 to 334
CN1Cc2c(Cl)cc(Cl)cc2C(c2cccc(Nc3c(NC4CCCC4)c(=O)c3=O)c2)C1 (centres unmarked) [Example 63, 6,8-dichloro-2-methyl-4-[3N-(2-cyclopentylamino-3,4-dioxocyclobuten-1-yl)amino]phenyl-1,2,3,4-tetrahydroisoquinoline]		248 to 252
CCNc1c(Nc2ccccc2C2CN(C)Cc3c(Cl)cc(Cl)cc32)c(=O)c1=O (centres unmarked) [Example 49, 6,8-dichloro-2-methyl-4-[2N-(2-N-ethylamino-3,4-dioxocyclobuten-1-yl)amino]phenyl-1,2,3,4-tetrahydroisoquinoline]		205 to 208
CN1Cc2c(Cl)cc(Cl)cc2[C@H](c2ccccc2Nc2c(N(C)C)c(=O)c2=O)C1 [Example 21, 6,8-dichloro-2-methyl-4(R)-[2N-(2-dimethylamino-3,4-dioxocyclobuten-1-yl)amino]phenyl-1,2,3,4-tetrahydroisoquinoline]		236 to 240
CN1Cc2c(Cl)cc(Cl)cc2C(c2ccccc2Nc2c(NCc3cccnc3)c(=O)c2=O)C1 (centres unmarked) [Example 52, 6,8-dichloro-2-methyl-4-[2N-(2N-(3-picolylmethyl)amino-3,4-dioxocyclobuten-1-yl)amino]phenyl-1,2,3,4-tetrahydroisoquinoline]		244 to 246
CN1Cc2c(Cl)cc(Cl)cc2[C@H](c2ccc(Nc3c(NC4CC4)c(=O)c3=O)cc2)C1 [Example 35]		280 to 285
CN1Cc2c(Cl)cc(Cl)cc2C(c2ccc(Nc3c(N(C)C4CCCCC4)c(=O)c3=O)cc2)C1 (centres unmarked) [Example 17, 6,8-dichloro-2-methyl-4-[4N-(2-N-cyclohexyl-N-methylamino-3,4-dioxocyclobuten-1-yl)amino]phenyl-1,2,3,4-tetrahydroisoquinoline]		260 to 265
CN1Cc2c(Cl)cc(Cl)cc2C(c2ccc(Nc3c(NCc4ccco4)c(=O)c3=O)cc2)C1 (centres unmarked) [Example 56, 6,8-dichloro-2-methyl-4-[4N-(2N-(2-furylmethyl)amino-3,4-dioxocyclobuten-1-yl)amino]phenyl-1,2,3,4-tetrahydroisoquinoline]		264 to 268
CN1Cc2c(Cl)cc(Cl)cc2C(c2ccc(Nc3c(NCc4cccnc4)c(=O)c3=O)cc2)C1 (centres unmarked) [Example 59]		288 to 290
